Converted amounts (≈) assume the structure as drawn.
Columns and labels:
[1] = target: T1, glucocerebrosidase (Gcase) (Homo sapiens, UniProt P04062); assay: Glucocerebrosidase (Gcase) activation assay, 4-methylumbelliferyl-beta-D-glucopyranoside substrate, with saposin C; assay type: biochemical; conditions: for activation at 0.1 µM: 0.1 μM test compound, read-out: Percent Gcase Activation 0.1 μM Test Compound; for activation at 1 µM: 1 μM test compound, read-out: Percent Gcase Activation 1 μM Test Compound
T1 sequence (P04062 40-536): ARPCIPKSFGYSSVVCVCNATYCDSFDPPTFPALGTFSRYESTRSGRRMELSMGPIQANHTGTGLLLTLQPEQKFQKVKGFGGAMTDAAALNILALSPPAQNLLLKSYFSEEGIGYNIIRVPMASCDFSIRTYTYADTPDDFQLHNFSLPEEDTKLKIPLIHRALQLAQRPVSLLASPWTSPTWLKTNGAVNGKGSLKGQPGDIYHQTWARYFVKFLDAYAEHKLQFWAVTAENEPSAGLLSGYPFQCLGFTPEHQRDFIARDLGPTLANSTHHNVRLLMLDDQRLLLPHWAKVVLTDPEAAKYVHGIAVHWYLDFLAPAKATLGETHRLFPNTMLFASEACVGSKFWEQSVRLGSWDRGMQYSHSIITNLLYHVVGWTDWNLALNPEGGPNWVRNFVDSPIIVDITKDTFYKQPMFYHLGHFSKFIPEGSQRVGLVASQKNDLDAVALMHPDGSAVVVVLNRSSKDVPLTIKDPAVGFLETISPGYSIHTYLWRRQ
Method: The ability of exemplary compounds to activate glucocerebrosidase (Gcase) was measured.
A 484 μL aliquot of a 1.0 mg/mL solution of phosphatidylserine (PS) (Sigma P7769) in chloroform was evaporated under a stream of nitrogen for 1 hour. The lipid film was dissolved over 4 minutes of vigorous vortexing in 40 mL of 176 mM K2HPO4/50 mM citric acid (pH 4.7) containing 7.5 μL of triton X-100, resulting in a mixed micellar preparation with a composition of 0.32 mM triton and 0.37 mol % PS. 4-Methylumbelliferyl-beta-D-glucopyranoside (ACROS-337025000) was dissolved in the micellar solution to a final concentration of 2 mM for use as the reaction substrate.
Test compounds were diluted to the desired concentrations with dimethylsulfoxide (DMSO) from 10 mM stocks, and 0.41 μL of the DMSO compound mixture was added to 100 μL of micellar solution containing 10 nM GCase and 100 nM saposin C (Enzo ALX-201-262-C050). Pre-incubation was allowed to occur for 30 minutes at room temperature, after which the reaction was initiated by combining 25 μL of substrate solution with 25 μL of compound/GCase/saposin mixture. The reaction proceeded for 15 minutes at room temperature and was stopped by adding 150 μL of 1M glycine, pH 12.5. The endpoint of the reaction was monitored by measuring fluorescence intensity (excitation: 365 nm; emission: 440 nm) on a SpectraMax i3 instrument (Molecular Devices). Test compounds were screened at 1.0 and 0.1 μM final concentration, and subsequent 8-point dose response curves were obtained using 3-fold dilutions from a maximum final concentration of […].

[2] = Compound solubility in water; assay type: physicochemical

Row | SMILES | activation at 0.1 µM [1] [%] | activation at 1 µM [1] [%] | solubility [2] [µg/mL]
1 | Cc1cc(NC2CC2)nc2c(C(=O)NC(c3ccc(F)cc3)C(F)(F)F)ncn12 (stereo not drawn) [III-91] | > 20 | > 60 | 0.8 (≈ 1.96 µM)
2 | Cc1cc(N2CCCC(F)(F)C2)nc2c(C(=O)NC(C)(C)C3CC3)ncn12 [III-92] | 10 to 20 | > 60 | 9.6 (≈ 25.4 µM)
3 | Cc1cc(-c2ccncc2)nc2c(C(=O)NC(C)(C)C3CC3)ncn12 [III-93] | < 10 | < 30 | 18.8 (≈ 56.1 µM)
4 | Cc1cc(-c2cccc(F)c2)nc2c(C(=O)N[C@H](C)C3CC3)ncn12 [III-94] | 10 to 20 | > 60 | 8.4 (≈ 24.8 µM)
5 | Cc1cc(-c2ncccn2)nc2c(C(=O)NC(C)(C)C3CC3)ncn12 [III-95] | < 10 | < 30 | 6.4 (≈ 19 µM)
6 | Cc1cc(-c2ccccn2)nc2c(C(=O)N[C@H]3CC[C@H](OCC(C)C)CC3)ncn12 [III-96] | < 10 | 30 to 60 | 6.6 (≈ 16.2 µM)
7 | COc1cncc(-c2cc(C)n3cnc(C(=O)N[C@@H](C)C4CC4)c3n2)c1 [III-97] | < 10 | 30 to 60 | 17.3 (≈ 49.2 µM)
8 | COc1cccc(-c2cc(C)n3cnc(C(=O)N[C@@H](C)C4CC4)c3n2)n1 [III-98] | 10 to 20 | > 60 | 5.2 (≈ 14.8 µM)
9 | COc1cc(-c2cc(C)n3cnc(C(=O)N[C@@H](C)C4CC4)c3n2)ccn1 [III-99] | < 10 | < 30 | 25.6 (≈ 72.8 µM)
10 | COc1ccnc(-c2cc(C)n3cnc(C(=O)NC(C)C4CC4)c3n2)c1 (stereo not drawn) [III-100] | < 10 | 30 to 60 | 7.2 (≈ 20.5 µM)
11 | COCCOc1cccc(-c2cc(C)n3cnc(C(=O)N[C@@H](C)C4CC4)c3n2)c1 [III-101] | 10 to 20 | > 60 | 16 (≈ 40.6 µM)
12 | Cc1cc(C)n2cnc(C(=O)N[C@@H](C)C3CC4(CCC4)C3)c2n1 [III-102] | < 10 | > 60 | 12.1 (≈ 38.7 µM)
13 | Cc1cc(-c2cccc(Cl)n2)nc2c(C(=O)N[C@@H](C)C3CC3)ncn12 [III-103] | < 10 | > 60 | 3.8 (≈ 10.7 µM)
14 | Cc1cc(-c2cc(Cl)ccn2)nc2c(C(=O)N[C@@H](C)C3CC3)ncn12 [III-104] | 10 to 20 | > 60 | 8 (≈ 22.5 µM)
15 | Cc1cc(-c2cncc(F)c2)nc2c(C(=O)N[C@@H](C)C3CC3)ncn12 [III-105] | < 10 | 30 to 60 | 24.9 (≈ 73.4 µM)
16 | Cc1cc(-c2ccnc(Cl)c2)nc2c(C(=O)N[C@@H](C)C3CC3)ncn12 [III-106] | < 10 | 30 to 60 | 12.8 (≈ 36 µM)
17 | Cc1cc(-c2cnc(Cl)c(F)c2)nc2c(C(=O)N[C@@H](C)C3CC3)ncn12 [III-107] | < 10 | 30 to 60 | 1.9 (≈ 5.08 µM)
18 | Cc1cc(-c2ccc(F)c(Cl)n2)nc2c(C(=O)N[C@@H](C)C3CC3)ncn12 [III-108] | < 10 | 30 to 60 | 14.5 (≈ 38.8 µM)
19 | Cc1cc(-c2cccc(F)c2)nc2c(C(=O)NC(C)(C)C3CC3)ncn12 [III-109] | > 20 | > 60 | 1.1 (≈ 3.12 µM)
20 | Cc1cc(-c2cccc(Cl)c2)nc2c(C(=O)N[C@@H](C)C3CC3)ncn12 [III-110] | > 20 | > 60 | 3.6 (≈ 10.1 µM)
21 | Cc1cc(-c2cc(F)cc(F)c2)nc2c(C(=O)N[C@@H](C)C3CC3)ncn12 [III-111] | > 20 | > 60 | 1.3 (≈ 3.65 µM)
22 | Cc1cc(-c2cc(F)ccc2F)nc2c(C(=O)N[C@@H](C)C3CC3)ncn12 [III-112] | > 20 | > 60 | 5.5 (≈ 15.4 µM)
23 | CCc1cc(-c2cccc(F)c2)nc2c(C(=O)N[C@@H](C)C3CC3)ncn12 [III-113] | > 20 | > 60 | 1.7 (≈ 4.82 µM)

Row | SMILES | activation at 0.1 µM [1] [%] | activation at 1 µM [1] [%] | solubility [2] [µg/mL]
24 | Cc1cc(N2CCCC(F)(F)C2)nc2c(C(=O)N[C@@H](C)C3CC3)ncn12 [III-114] | 10 to 20 | > 60 | 26 (≈ 71.5 µM)
25 | Cc1cc(N2CCC(F)(F)CC2)nc2c(C(=O)N[C@@H](C)C3CC3)ncn12 [III-115] | < 10 | < 30 | 20.5 (≈ 56.4 µM)
26 | COCc1cc(-c2cc(F)cc(F)c2)nc2c(C(=O)N[C@@H](C)C3CC3)ncn12 [III-116] | 10 to 20 | > 60 | 0.6 (≈ 1.55 µM)
27 | Cc1cc(-c2ncc[nH]2)nc2c(C(=O)NC(C)(C)C3CC3)ncn12 [III-117] | < 10 | < 30 | 20.5 (≈ 63.2 µM)
28 | Cc1cc(N2CCC(F)(F)CC2)nc2c(C(=O)NC(C)(C)C3CC3)ncn12 [III-118] | < 10 | 30 to 60 | 9.7 (≈ 25.7 µM)
29 | Cc1cc(Oc2cccc(F)c2)nc2c(C(=O)N[C@@H](C)C3CC3)ncn12 [III-119] | < 10 | 30 to 60 | 8.8 (≈ 24.8 µM)
30 | Cc1cc(Oc2ccccc2F)nc2c(C(=O)N[C@@H](C)C3CC3)ncn12 [III-120] | < 10 | 30 to 60 | 27.7 (≈ 78.2 µM)
31 | Cc1cc(Oc2ccccn2)nc2c(C(=O)N[C@@H](C)C3CC3)ncn12 [III-121] | < 10 | < 30 | 34.9 (≈ 103 µM)
32 | Cc1cc(Oc2cccnc2)nc2c(C(=O)N[C@@H](C)C3CC3)ncn12 [III-122] | < 10 | < 30 | 32.8 (≈ 97.2 µM)
33 | Cc1cc(Oc2ccncc2)nc2c(C(=O)N[C@@H](C)C3CC3)ncn12 [III-123] | < 10 | < 30 | 29.6 (≈ 87.7 µM)
34 | Cc1cc(-c2cccc(F)c2)nc2c(C(=O)NC(C)(C)C)ncn12 [III-124] | > 20 | > 60 | 3.4 (≈ 10.4 µM)
35 | Cc1cc(-c2cc(F)cc(F)c2)nc2c(C(=O)NC(C)(C)C)ncn12 [III-125] | > 20 | > 60 | 0.2 (≈ 0.581 µM)
36 | COc1cc(F)cc(-c2cc(C)n3cnc(C(=O)NC(C)(C)C)c3n2)c1 [III-126] | > 20 | > 60 | 0.1 (≈ 0.281 µM)
37 | COc1cccc(-c2cc(C)n3cnc(C(=O)NC(C)(C)C)c3n2)c1 [III-127] | > 20 | > 60 | 1.4 (≈ 4.14 µM)
38 | COCCOc1cc(C)n2cnc(C(=O)N[C@@H](C)C3CC3)c2n1 [III-128] | < 10 | < 30 | 34.1 (≈ 107 µM)
39 | Cc1cc(-c2ccc3ncoc3c2)nc2c(C(=O)N[C@@H](C)C3CC3)ncn12 [III-129] | < 10 | > 60 | 6.1 (≈ 16.9 µM)
40 | Cc1cc(-c2ccc3ocnc3c2)nc2c(C(=O)N[C@@H](C)C3CC3)ncn12 [III-130] | > 20 | > 60 | 7.7 (≈ 21.3 µM)
41 | Cc1cc(-c2ccn3ccnc3c2)nc2c(C(=O)N[C@@H](C)C3CC3)ncn12 [III-131] | < 10 | < 30 | 2.8 (≈ 7.77 µM)
42 | CC[C@H](C)NC(=O)c1ncn2c(C)cc(-c3cccc(F)c3)nc12 [III-132] | 10 to 20 | > 60 | 18.6 (≈ 57 µM)
43 | Cc1cc(-c2cccc(F)c2)nc2c(C(=O)NC(C3CC3)C3CC3)ncn12 [III-133] | > 20 | > 60 | 1.5 (≈ 4.12 µM)
44 | Cc1cc(-c2cccc(Cl)c2)nc2c(C(=O)NC(C)(C)C)ncn12 [III-134] | > 20 | > 60 | 2.4 (≈ 7 µM)
45 | C#CC(C)(C)NC(=O)c1ncn2c(C)cc(-c3cccc(Cl)c3)nc12 [III-135] | > 20 | > 60 | 0.3 (≈ 0.85 µM)
46 | CCc1cc(N2CCCC(F)(F)C2)nc2c(C(=O)NC(C)(C)C3CC3)ncn12 [III-136] | > 20 | > 60 | 17.2 (≈ 43.9 µM)
